Results taken from publication PMC2990348 (Journal of medicinal chemistry, 2010).
Entries after “also recorded” stand apart in the source; their conditions may differ. Like-named read-outs stand apart in the source and are kept apart here.

How the values were obtained:
hepatitis C virus (HCV) = conditions: read-out: IC50, replication of hepatitis C virus; cited from earlier work
PV RdRP [1] = target: T1, PV RdRP (Poliovirus type 1, UniProt P03300); conditions: cited from earlier work
DENV2 replicon = assay type: cell-based, dengue virus type 2
poliovirus (PV) [2] = system: poliovirus (PV)
in vitro = conditions: human
poliovirus (PV) [3] = assay: in vitro; conditions: human
PV RdRP (3D^pol) [4] = target: T2, PV RdRP (3D^pol) (Poliovirus type 1, UniProt P03300); assay type: biochemical
T2 sequence (P03300 1749-2209 limits assumed): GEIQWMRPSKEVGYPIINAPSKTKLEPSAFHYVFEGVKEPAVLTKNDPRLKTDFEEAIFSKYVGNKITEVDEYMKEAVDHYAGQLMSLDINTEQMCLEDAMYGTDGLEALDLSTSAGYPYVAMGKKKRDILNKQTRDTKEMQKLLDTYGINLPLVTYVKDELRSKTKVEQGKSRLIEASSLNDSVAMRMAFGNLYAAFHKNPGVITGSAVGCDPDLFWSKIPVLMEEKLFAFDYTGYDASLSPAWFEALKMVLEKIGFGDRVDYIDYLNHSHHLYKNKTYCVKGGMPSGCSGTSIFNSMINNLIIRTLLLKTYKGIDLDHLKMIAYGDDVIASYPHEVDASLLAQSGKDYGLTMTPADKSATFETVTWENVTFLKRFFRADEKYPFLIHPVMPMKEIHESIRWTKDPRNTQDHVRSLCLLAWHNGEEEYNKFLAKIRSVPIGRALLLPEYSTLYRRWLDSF

PV RdRP [5] = target: T1, PV RdRP; assay type: biochemical
PV RdRP (3D^pol) [6] = target: T2, PV RdRP (3D^pol); assay type: biochemical; remark: listed apart in the source
[7] = system: dengue virus type 2 (DENV2); conditions: read-out: IC50, dengue virus type 2; cited from earlier work

T1 sequence (P03300 1749-2209 limits assumed): as above

**Q.** For `C[C@@]1(O)[C@H](O)[C@@H](CO)O[C@H]1n1ccc2c(N)ncnc21` [7-deaza-2'-C-methyladenosine], which IC50 (hepatitis C virus (HCV)) is on record?
**A.** 108 nM

**Q.** For `Nc1ncnc2c1ncn2[C@@H]1O[C@H](COP(=O)(O)OP(=O)(O)OP(=O)(O)O)[C@@H](O)[C@H]1O` [ATP, adenosine triphosphate], which “Efficiency kpol/Kd,app” value (PV RdRP [1]) is on record?
**A.** 650000 M⁻¹ s⁻¹

**Q.** And the kpol (PV RdRP [1])?
**A.** 87 ± 4 s⁻¹

**Q.** Which results are given for `Cc1ncnc2c1ncn2[C@@H]1O[C@H](CO)[C@@H](O)[C@H]1O` [Compound 2, 6-methyl-9-β-D-ribofuranosylpurine, reference compound]?
**A.** Cytotoxic effects to HeLa cells after 7 h (HeLa S3 cells): pronounced effects; Toxicity relative to 3 (fold less toxic) (HeLa S3 cells; human): ~ 5 fold

**Q.** For `Nc1ncnc2c1ccn2[C@@H]1O[C@H](CO)[C@@H](O)[C@H]1O` [Compound 3, tubercidin, reference compound], which “Cytotoxic effects to HeLa cells after 7 h” value (shortened to “Cytotoxic effects”) (HeLa S3 cells) is on record?
**A.** pronounced effects

**Q.** For `Cc1ccnc2c1ncn2[C@@H]1O[C@H](CO)[C@@H](O)[C@H]1O` [Compound 4, 7-Methyl-3-β-D-ribofuranosyl-3H-imidazo[4,5-b]pyridine], which “Inhibition of DENV2 replicon activity” value (DENV2 replicon) is on record?
**A.** essentially no inhibition

**Q.** And the “Cytotoxic effects” value (HeLa S3 cells)?
**A.** little cytotoxicity

**Q.** And the “Cytotoxicity” value (HeLa S3 cells)?
**A.** essentially no cytotoxicity

**Q.** And the “Activity against PV” value (poliovirus (PV) [2])?
**A.** inactive

**Q.** With `Cc1nccc2c1ncn2[C@@H]1O[C@H](CO)[C@@H](O)[C@H]1O` [Compound 5, 3-deaza-6-methyl-9-β-D-ribofuranosylpurine] as the molecule, how does the “Inhibition of DENV2 replicon activity” value (DENV2 replicon) read?
**A.** essentially no inhibition

**Q.** And the “Cytotoxicity” value (HeLa S3 cells)?
**A.** essentially no cytotoxicity

**Q.** What about the “Activity against PV” value (poliovirus (PV) [2]) of the same molecule?
**A.** inactive

**Q.** And the “Antiviral activity in plaque assays of infectivity” value (poliovirus (PV) [2])?
**A.** essentially inactive

**Q.** Which results are given for `Cc1ncnc2c1ccn2[C@@H]1O[C@H](CO)[C@@H](O)[C@H]1O` [Compound 6, 4-Methyl-7-β-D-ribofuranosylpyrrolo[2,3-d]pyrimidine]?
**A.** viability at 100 µM (in vitro): 33%; selectivity ratio (poliovirus (PV) [3]): > 100

**Q.** Which “Inhibition of DENV2 replicon activity” value (DENV2 replicon) does the source give for `COC[C@H]1O[C@@H](n2ccc3c(C)ncnc32)[C@H](O)[C@@H]1O` [Compound 7, 4-Methyl-7-(5'-O-methyl-β-D-ribofuranosyl)pyrrolo[2,3-d]pyrimidine] here?
**A.** essentially no inhibition

**Q.** And the “Cytotoxic effects” value (HeLa S3 cells)?
**A.** little cytotoxicity

**Q.** And the “Cytotoxicity” value (HeLa S3 cells)?
**A.** essentially no cytotoxicity

**Q.** What about the “Antiviral activity in plaque assays of infectivity” value (poliovirus (PV) [2]) of the same molecule?
**A.** eliminated the antiviral effect

**Q.** What about the “Reduction of biological activity on methylation of the 5'-alcohol of 6” value (poliovirus (PV) [2]) of the same molecule?
**A.** over 1000 fold

**Q.** Which results are given for `Cc1ncnc2c1ncn2[C@@H]1O[C@H](COP(=O)(O)OP(=O)(O)OP(=O)(O)O)[C@@H](O)[C@H]1O` [Compound 8, 6-methyl-9-β-D-ribofuranosylpurine 5'-triphosphate]?
**A.** Incorporation efficiency across from uracil (PV RdRP (3D^pol) [4]): comparable to natural ATP; Incorporation opposite adenine and guanine (PV RdRP (3D^pol) [4]): almost no incorporation; RNA chain termination (extension of RNA oligomers to +4) (PV RdRP (3D^pol) [4]): neither of these compounds functions as a RNA chain terminator; Efficiency kpol/Kd,app (PV RdRP [5]): 60000 M⁻¹ s⁻¹; Efficiency relative to natural ATP (PV RdRP [5]): only ten-fold lower than natural ATP; Incorporation opposite C by PV RdRP, rate (PV RdRP [5]): extremely slow; Substrate of PV RdRP (PV RdRP [5]): robust substrates; kpol (PV RdRP [5]): 11 ± 0.3 s⁻¹; Inhibition of PV RdRP (PV RdRP (3D^pol) [6]): neither 8 nor 9 inhibit PV RdRP; kcat compared with natural correct nucleotides (PV RdRP (3D^pol) [6]): increases in kcat

**Q.** For `Cc1ncnc2c1ccn2[C@@H]1O[C@H](COP(=O)(O)OP(=O)(O)OP(=O)(O)O)[C@@H](O)[C@H]1O` [Compound 9, 4-Methyl-7-β-D-ribofuranosylpyrrolo[2,3-d]pyrimidine 5'-triphosphate], which “Incorporation efficiency across from uracil” value (PV RdRP (3D^pol) [4]) is on record?
**A.** comparable to natural ATP

**Q.** And the “Incorporation opposite adenine and guanine” value (PV RdRP (3D^pol) [4])?
**A.** almost no incorporation

**Q.** What about the “RNA chain termination (extension of RNA oligomers to +4)” value (PV RdRP (3D^pol) [4]) of the same molecule?
**A.** neither of these compounds functions as a RNA chain terminator

**Q.** And the “Efficiency kpol/Kd,app” value (PV RdRP [5])?
**A.** 50000 M⁻¹ s⁻¹

**Q.** And the “Efficiency relative to natural ATP” value (PV RdRP [5])?
**A.** only ten-fold lower than natural ATP

**Q.** And the “Incorporation opposite C by PV RdRP, rate” value (PV RdRP [5])?
**A.** extremely slow

**Q.** And the “Substrate of PV RdRP” value (PV RdRP [5])?
**A.** robust substrates; also recorded: efficient substrate

**Q.** And the kpol (PV RdRP [5])?
**A.** 6 ± 0.5 s⁻¹

**Q.** And the “Inhibition of PV RdRP” value (PV RdRP (3D^pol) [6])?
**A.** neither 8 nor 9 inhibit PV RdRP

**Q.** And the “kcat compared with natural correct nucleotides” value (PV RdRP (3D^pol) [6])?
**A.** increases in kcat

**Q.** With `C#C[C@@]1(O)[C@H](O)[C@@H](CO)O[C@H]1n1ccc2c(N)ncnc21` [NITD008, 7-deaza-2'-C-ethynyladenosine] as the molecule, how does the IC50 [7] read?
**A.** 640 nM

**Q.** Which results are given for `NC(=O)c1ncn([C@@H]2O[C@H](COP(=O)(O)OP(=O)(O)OP(=O)(O)O)[C@@H](O)[C@H]2O)n1` [RTP, ribavirin triphosphate]?
**A.** Efficiency relative to 8 or 9 (PV RdRP [5]): approximately three orders magnitude lower; Efficiency kpol/Kd,app (PV RdRP [1]): 30 M⁻¹ s⁻¹; kpol (PV RdRP [1]): 0.014 ± 0.001 s⁻¹
